Test results: ChEMBL document CHEMBL3632570, “Structure-Guided Design of Novel l-Cysteine Derivatives as Potent KSP Inhibitors” (ACS Med Chem Lett, 2015)
Activity calls are given as the source filed them. The rule behind the calls is not given here.

Experiments:
HCT-116 [1] = test: Antitumor activity against human HCT116 cells xenografted in athymic nude BALB/cAJcL mouse assessed as inhibition of tumor growth at 150 mg/kg, iv administered on days 1,3,5,8,10 and 12 measured on day 15; assay type: functional
HCT-116 [2] = test: Antitumor activity against human HCT116 cells xenografted in athymic nude BALB/cAJcL mouse assessed as inhibition of tumor growth at 75 mg/kg, iv administered on days 1,3,5,8,10 and 12 measured on day 15; assay type: functional
HCT-116 [3] = test: Antitumor activity against human HCT116 cells xenografted in iv dosed athymic nude BALB/cAJcL mouse assessed as inhibition of tumor growth drug administered on days 1,3,5,8,10 and 12 measured on day 15; assay type: functional, organism-based
[4] = target: T1, Kinesin-like protein KIF11 (Homo sapiens) (UniProt P52732)
T1 sequence (whole entry): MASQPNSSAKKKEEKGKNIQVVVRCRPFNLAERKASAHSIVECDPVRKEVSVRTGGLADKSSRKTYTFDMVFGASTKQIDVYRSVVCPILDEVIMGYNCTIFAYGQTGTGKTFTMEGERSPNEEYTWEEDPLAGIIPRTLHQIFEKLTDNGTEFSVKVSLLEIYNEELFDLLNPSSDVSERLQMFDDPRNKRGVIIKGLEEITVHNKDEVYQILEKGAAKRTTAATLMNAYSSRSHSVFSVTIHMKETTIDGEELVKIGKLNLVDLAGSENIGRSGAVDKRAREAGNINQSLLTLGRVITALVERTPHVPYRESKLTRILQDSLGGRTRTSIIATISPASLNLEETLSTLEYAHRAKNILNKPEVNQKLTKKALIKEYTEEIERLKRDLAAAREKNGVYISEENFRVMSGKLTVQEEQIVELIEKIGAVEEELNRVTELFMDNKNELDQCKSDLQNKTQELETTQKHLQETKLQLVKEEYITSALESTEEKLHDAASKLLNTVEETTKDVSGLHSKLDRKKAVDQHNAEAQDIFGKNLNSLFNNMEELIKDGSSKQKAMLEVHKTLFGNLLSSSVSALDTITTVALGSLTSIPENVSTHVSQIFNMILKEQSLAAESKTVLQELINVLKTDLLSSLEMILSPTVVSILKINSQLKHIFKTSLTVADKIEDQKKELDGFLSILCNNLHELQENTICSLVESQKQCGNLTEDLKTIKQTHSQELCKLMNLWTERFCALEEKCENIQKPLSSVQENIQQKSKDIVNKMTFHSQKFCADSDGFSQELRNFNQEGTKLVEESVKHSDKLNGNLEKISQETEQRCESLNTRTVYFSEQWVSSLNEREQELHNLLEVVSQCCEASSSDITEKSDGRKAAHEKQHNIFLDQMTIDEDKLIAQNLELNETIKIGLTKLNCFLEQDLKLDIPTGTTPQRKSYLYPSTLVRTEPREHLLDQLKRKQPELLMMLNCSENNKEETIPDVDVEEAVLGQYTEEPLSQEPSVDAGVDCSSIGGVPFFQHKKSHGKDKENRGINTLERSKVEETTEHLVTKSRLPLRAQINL
Description: Binding affinity to KSP motor domain (unknown origin) assessed as change in melting temperature at 100 uM by differential scanning fluorimetry in presence of 1 mM ATP

Mus musculus [5] = test: Toxicity in athymic nude BALB/cAJcL mouse xenografted with HCT116 cells assessed as body weight loss at 25 mg/kg, iv administered on days 1,3,5,8,10 and 12 relative to vehicle-treated control; assay type: organism-based, HCT-116; conditions: in vivo
[6] = target: T2, Kinesin-like protein KIF11 (Homo sapiens, UniProt P52732); test: Inhibition of His-tagged KSP motor domain (1 to 369) (unknown origin) assessed as inhibition of microtubule-stimulated KSP ATPase activity preincuabted for 30 mins followed by ATP addition measured after 15 mins by Kinase-Glo assay
T2 sequence (P52732 whole entry): T1 sequence (whole entry)

Mus musculus [7] = test: Toxicity in athymic nude BALB/cAJcL mouse xenografted with HCT116 cells assessed as mortality at 150 mg/kg, iv administered on days 1,3,5,8,10 and 12; assay type: organism-based, HCT-116; conditions: in vivo
HCT-116 [8] = test: Growth inhibition of human HCT116 cells after 72 hrs by MTS assay; assay type: functional, cell-based; conditions: HCT-116, 72 h
Mus musculus [9] = test: Toxicity in athymic nude BALB/cAJcL mouse xenografted with HCT116 cells assessed as mortality at 75 mg/kg, iv administered on days 1,3,5,8,10 and 12; assay type: organism-based, HCT-116; conditions: in vivo
HCT-116 [10] = test: Antitumor activity against human HCT116 cells xenografted in athymic nude BALB/cAJcL mouse assessed as inhibition of tumor growth at 25 mg/kg, iv administered on days 1,3,5,8,10 and 12 measured on day 15; assay type: functional
Mus musculus [11] = test: Toxicity in athymic nude BALB/cAJcL mouse xenografted with HCT116 cells assessed as mortality at 25 mg/kg, iv administered on days 1,3,5,8,10 and 12; assay type: organism-based, HCT-116; conditions: in vivo
HeLa [12] = test: Cell cycle arrest at mitotic phase in human HeLa cells assessed as formation of monopolar spindles at 40 nM after 6 hrs by DAPI staining-based microscopic analysis; assay type: functional
Mus musculus [13] = test: Toxicity in athymic nude BALB/cAJcL mouse xenografted with HCT116 cells assessed as mortality at 10 mg/kg, iv administered on days 1,3,5,8,10 and 12; assay type: organism-based, HCT-116; conditions: in vivo
HCT-116 [14] = test: Antitumor activity against human HCT116 cells xenografted in athymic nude BALB/cAJcL mouse assessed as inhibition of tumor growth at 10 mg/kg, iv administered on days 1,3,5,8,10 and 12 measured on day 15; assay type: functional
HeLa [15] = test: Cell cycle arrest at mitotic phase in human HeLa cells assessed as mitotic index after 6 hrs; assay type: functional

Compound	IC50 [6] [nM]	IC50 (HCT-116 [8]) [nM]	other results
N[C@@H](CSC1(c2ccccc2)c2ccccc2CCc2ccccc21)C(=O)O	209	325	T/C (HCT-116 [1]): 23%; T/C (HCT-116 [2]): 43%; TGI (HCT-116 [3]): Dose-dependent effect; ΔTm [4]: 8 °C; Activity (Mus musculus [5]): Toxic; Activity (Mus musculus [7]): Non-toxic; Activity (Mus musculus [9]): Non-toxic; T/C (HCT-116 [10]): 62%; Activity (Mus musculus [11]): Non-toxic
N[C@@H](CSC1(c2ccc(C(F)(F)F)cc2)c2ccccc2CSc2ccccc21)C(=O)O (mixture of isomers)	61	15	–
COc1ccc(C2(SC[C@H](N)C(=O)O)c3ccccc3C=Cc3ccccc32)cc1	8.6	2.6	ΔTm [4]: 12.5 °C
N[C@@H](CSC1(c2ccc(C(F)(F)F)cc2)c2ccccc2C=Cc2ccccc21)C(=O)O	36	5	Activity (HeLa [12]): Active; Activity (Mus musculus [13]): Non-toxic; TGI (HCT-116 [3]): Dose-dependent effect; T/C (HCT-116 [14]): 31%; T/C (HCT-116 [10]): 12%; Activity (Mus musculus [11]): Non-toxic; MI50 (HeLa [15]): 12 nM
N[C@@H](CSC1(c2ccc(C(F)(F)F)cc2)c2ccccc2COc2ccccc21)C(=O)O (mixture of isomers)	75	76	–
Cc1ccc(C(=O)N(CCCN)[C@@H](c2nc3cc(Cl)ccc3c(=O)n2Cc2ccccc2)C(C)C)cc1 [ISPINESIB]	–	1.1	–
N[C@@H](CSC(c1ccccc1)(c1ccccc1)c1ccc(C(F)(F)F)cc1)C(=O)O	262	216	–
CON(C)C(=O)N1N=C(c2cc(F)ccc2F)S[C@@]1(CCCN)c1ccccc1 [FILANESIB]	18	0.7	–
N[C@@H](CSC1(c2cccc(C(F)(F)F)c2)c2ccccc2CCc2ccccc21)C(=O)O	238	123	–
CC(C)(C)c1ccc(C2(SC[C@H](N)C(=O)O)c3ccccc3CCc3ccccc32)cc1	301	234	–
N[C@@H](CSC1(c2ccc(-c3ccccc3)cc2)c2ccccc2C=Cc2ccccc21)C(=O)O	1400	395	–
N[C@@H](CSC1(c2ccc(Oc3ccccc3)cc2)c2ccccc2CCc2ccccc21)C(=O)O	306	291	–
N[C@@H](CSC1(c2ccc(Cl)cc2)c2ccccc2CCc2ccccc21)C(=O)O	11	41	Activity (Mus musculus [5]): Toxic; T/C (HCT-116 [10]): 11%; Activity (Mus musculus [11]): Non-toxic
N[C@@H](CSC1(c2cccc(Cl)c2)c2ccccc2CCc2ccccc21)C(=O)O	160	637	–
N[C@@H](CSC1(c2ccc(Cl)cc2)c2ccccc2C=Cc2ccccc21)C(=O)O	12	3.9	–
N[C@@H](CSC(c1ccccc1)(c1ccccc1)c1ccccc1)C(=O)O [S-TRITYL-L-CYSTEINE]	–	910	–
Cc1ccccc1C1(SC[C@H](N)C(=O)O)c2ccccc2CCc2ccccc21	7800	4590	–
Cc1ccc(C2(SC[C@H](N)C(=O)O)c3ccccc3C=Cc3ccccc32)cc1	14	3.4	–
N[C@@H](CSC1(c2ccccc2)c2ccccc2CCSc2ccccc21)C(=O)O (mixture of isomers)	> 20000	> 10000	–
N[C@@H](CSC1(c2ccc(C(F)(F)F)cc2)c2ccccc2Sc2ccccc21)C(=O)O	> 20000	> 10000	–
N[C@@H](CSC1(c2ccc(C(F)(F)F)cc2)c2ccccc2Oc2ccccc21)C(=O)O	> 20000	> 10000	–
Cc1ccc(C2(SC[C@H](N)C(=O)O)c3ccccc3CCc3ccccc32)cc1	9.3	25	T/C (HCT-116 [10]): 19%; Activity (Mus musculus [11]): Non-toxic
N[C@@H](CSC1(c2ccc(-c3ccccc3)cc2)c2ccccc2CCc2ccccc21)C(=O)O	1060	1300	–
COc1ccc(C(SC[C@H](N)C(=O)O)(c2ccccc2)c2ccccc2)cc1	–	213	ΔTm [4]: 9 °C
